Results published in US6534655B1, “Indeno[1,2-C]pyrazole derivatives for inhibiting tyrosine kinase activity” (BASF Aktiengesellschaft, priority 1997, dated 2003).

Assays:
[1] = target: T1, KDR tyrosine kinase (Homo sapiens, UniProt P35968); test: KDR in vitro ELISA (tyrosine kinase activity); assay type: biochemical; conditions: ATP 5 μM, 5% DMSO, poly(Glu,Tyr) 4:1 substrate
T1 construct: poly-His6 (N); made in house; host or cells: SF-9 insect cells (recombinant baculovirus, pVL1393)
Source text: The coding sequence for the KDR intra-cellular domain (aa789-1354) was generated through PCR using cDNAs isolated from HUVEC cells. A poly-His6 sequence was introduced at the N-terminus of this protein as well. This fragment was cloned into transfection vector pVL1393 at the Xba 1 and Not 1 site. Recombinant baculovirus (BV) was generated through co-transfection using the BaculoGold Transfection reagent (PharMingen). Recombinant BV was plaque purified and verified through Western analysis. For protein production, SF-9 cells were grown in SF-900-II medium at 2×10^6/ml, and were infected at 0.5 plaque forming units per cell (MOI). Cells were harvested at 48 hours post infection.
SF-9 cells expressing (His)6KDR(aa789-1354) were lysed by adding 50 ml of Triton X-100 lysis buffer (20 mM Tris, pH 8.0, 137 mM NaCl, 10% glycerol, 1% Triton X-100, 1 mM PMSF, 10 μg/ml aprotinin, 1 μg/ml leupeptin) to the cell pellet from 1 L of cell culture. The lysate was centrifuged at 19,000 rpm in a Sorval SS-34 rotor for 30 min at 4° C. The cell lysate was applied to a 5 ml NiCl2 chelating sepharose column, equilibrated with 50 mM HEPES, pH7.5, 0.3 M NaCl. KDR was eluted using the same buffer containing 0.25 M imidazole. Column fractions were analyzed using SDS-PAGE and an ELISA assay (below) which measures kinase activity. The purified KDR was exchanged into 25 mM HEPES, pH7.5, 25 mM NaCl, 5 mM DTT buffer and stored at −80° C.
The disclosed protocol can be adapted for determining activity with respect to a specific RTK. For example, preferred protocols for conducting the ELISA experiments for KDR is provided below. Adaptation of these protocols for determining a compound's activity for other members of the RTK family, as well as non-receptor tyrosine kinases, are well within the abilities of those in the art. […]
Stop with 1M Phosphoric acid. Shake on plate reader.
Read OD immediately at 450 nm
Optimal incubation times and enzyme reaction conditions vary slightly with enzyme preparations and are determined empirically for each lot.

[2] = target: T2, KDR (Homo sapiens, UniProt P35968); test: VEGF-induced KDR phosphorylation in HUVEC measured by Western blots; assay type: cell-based; conditions: VEGF(165) 50 ng/ml, Western blot, read-out: cellular IC50 (VEGF-induced KDR phosphorylation)
T2 construct: HUVEC cells (from pooled donors) were purchased from Clonetics (San Diego, Calif.) and cultured according to the manufacturer directions; host or cells: HUVEC (pooled donors, passages 3-8)
Method: A. VEGF-Induced KDR Phosphorylation in Human Umbilical Vein Cells (HUVEC) as Measured by Western Blots.
1. HUVEC cells (from pooled donors) were purchased from Clonetics (San Diego, Calif.) and cultured according to the manufacturer directions. Only early passages (3-8) were used for this assay. Cells were cultured in 100 mm dishes (Falcon for tissue culture; Becton Dickinson; Plymouth, England) using complete EBM media (Clonetics).
2. For evaluating a compound's inhibitory activity, cells were trypsinized and seeded at 0.5-1.0×10^5 cells/well in each well of 6-well cluster plates (Costar; Cambridge, Mass.).
3. 3-4 days after seeding, plates were 90-100% confluent. Medium was removed from all the wells, cells were rinsed with 5-10 ml of PBS and incubated 18-24 h with 5 ml of EBM base media with no supplements added (i.e., serum starvation).
4. Serial dilutions of inhibitors were added in 1 ml of EBM media (25 uM, 5 uM, or 1 uM final concentration) to cells and incubated for one hour at 37° C. Human recombinant VEGF(165) (R&D Systems) was then added to all the wells in 2 ml of EBM medium at a final concentration of 50 ng/ml and incubated at 37° C. for 10 minutes. Control cells untreated or treated with VEGF only were used to assess background phosphorylation and induction by VEGF.
5. […]

[3] = tested on: Human umbilical vein endothelial cells (HUVEC); test: HUVEC mitogenesis assay (tritiated thymidine incorporation); assay type: cell-based; conditions: mitogenesis induced by VEGF, FGF or Complete Media (stimulus not given)
Method: B. HUVEC Mitogenesis Assay
Human umbilical vein endothelial cells (HUVEC) were cultured in EGM-Complete Media (endothelial growth media supplemented with 10% FBS, hydrocortisone, epidermal growth factor and bovine brain extract as per the supplier's directions). Cells, media and supplements were purchased from Clonetics (San Diego, Calif.). The HUVEC Mitogenesis Assay was used to measure inhibition of mitogenesis induced by VEGF, FGF or Complete Media. Cells were harvested by trypsinization, washed once and suspended in Complete Media (CM) at a concentration of 5,000 cells/0.15 ml. Cells were seeded into 96-well plates at 5,000 cells/well and incubated at 37° C. for 24 hours. Cells were washed once with serum-free media (SFM) and incubated under serum-free conditions for 24 hours. Non-serum starved control wells were cultured with CM during this period. Test compounds were prepared as 10 mM stock solutions in DMSO, diluted in SFM and added to wells over a concentration range (0.005-50 μM final concentration). Cells were incubated for 1 hour prior to addition of 50 ng/ml VEGF or FGF (R & D Systems, Minneapolis, Minn.). Complete media stimulated wells received the test compound and stimulus simultaneously. […] Plates were harvested onto filter mats with a Tomtec Harvester and counted with a Betaplate liquid scintillation counter (Wallac).

T1 sequence (P35968 789-1354): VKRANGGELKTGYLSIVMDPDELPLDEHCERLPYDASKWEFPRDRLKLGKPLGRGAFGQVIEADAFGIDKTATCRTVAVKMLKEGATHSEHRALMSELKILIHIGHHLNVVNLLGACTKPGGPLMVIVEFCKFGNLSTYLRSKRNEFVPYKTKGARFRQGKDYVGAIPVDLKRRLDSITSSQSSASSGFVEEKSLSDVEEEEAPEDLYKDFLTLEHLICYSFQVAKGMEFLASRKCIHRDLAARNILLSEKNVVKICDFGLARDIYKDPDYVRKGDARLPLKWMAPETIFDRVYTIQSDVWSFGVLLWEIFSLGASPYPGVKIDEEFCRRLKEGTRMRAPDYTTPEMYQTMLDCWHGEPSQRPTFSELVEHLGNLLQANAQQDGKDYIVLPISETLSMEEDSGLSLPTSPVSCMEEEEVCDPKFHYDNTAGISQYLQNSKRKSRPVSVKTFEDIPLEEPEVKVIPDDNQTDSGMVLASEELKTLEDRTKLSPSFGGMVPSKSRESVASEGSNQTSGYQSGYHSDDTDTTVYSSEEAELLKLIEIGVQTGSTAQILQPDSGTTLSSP
T2 sequence (P35968 20-1356): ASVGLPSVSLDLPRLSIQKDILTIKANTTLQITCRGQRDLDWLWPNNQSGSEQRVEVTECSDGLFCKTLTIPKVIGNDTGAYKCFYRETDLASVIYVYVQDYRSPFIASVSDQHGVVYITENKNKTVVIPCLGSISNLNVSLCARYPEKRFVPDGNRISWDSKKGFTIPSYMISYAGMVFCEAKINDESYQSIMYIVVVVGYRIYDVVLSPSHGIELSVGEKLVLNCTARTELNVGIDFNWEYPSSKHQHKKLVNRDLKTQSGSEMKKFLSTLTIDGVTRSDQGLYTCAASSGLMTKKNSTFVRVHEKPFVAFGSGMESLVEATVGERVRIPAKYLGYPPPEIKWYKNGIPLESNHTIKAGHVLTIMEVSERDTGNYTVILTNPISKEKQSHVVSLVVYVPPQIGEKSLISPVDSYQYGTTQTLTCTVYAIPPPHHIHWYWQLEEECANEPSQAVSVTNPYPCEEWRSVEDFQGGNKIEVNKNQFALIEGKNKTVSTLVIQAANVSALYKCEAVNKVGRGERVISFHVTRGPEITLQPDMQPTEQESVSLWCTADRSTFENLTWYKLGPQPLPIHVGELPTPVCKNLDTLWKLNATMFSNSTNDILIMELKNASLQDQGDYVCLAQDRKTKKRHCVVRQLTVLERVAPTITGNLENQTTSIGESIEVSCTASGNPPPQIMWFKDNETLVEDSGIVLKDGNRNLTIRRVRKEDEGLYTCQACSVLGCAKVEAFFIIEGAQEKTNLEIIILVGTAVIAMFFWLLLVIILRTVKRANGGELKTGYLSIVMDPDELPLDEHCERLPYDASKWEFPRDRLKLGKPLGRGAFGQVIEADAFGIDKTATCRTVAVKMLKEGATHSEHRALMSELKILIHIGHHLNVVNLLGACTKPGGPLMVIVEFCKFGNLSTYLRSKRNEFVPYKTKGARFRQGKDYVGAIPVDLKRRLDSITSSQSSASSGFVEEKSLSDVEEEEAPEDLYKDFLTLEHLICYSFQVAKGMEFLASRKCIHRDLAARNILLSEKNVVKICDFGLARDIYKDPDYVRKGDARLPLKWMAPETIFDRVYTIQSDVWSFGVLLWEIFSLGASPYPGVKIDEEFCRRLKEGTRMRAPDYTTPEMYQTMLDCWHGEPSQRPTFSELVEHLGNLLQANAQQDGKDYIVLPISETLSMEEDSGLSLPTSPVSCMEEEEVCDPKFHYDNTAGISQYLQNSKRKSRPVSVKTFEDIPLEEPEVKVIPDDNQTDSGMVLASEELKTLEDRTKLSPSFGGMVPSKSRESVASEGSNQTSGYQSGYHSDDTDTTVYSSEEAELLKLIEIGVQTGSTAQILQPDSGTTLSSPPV

Compound	melting point [°C]	IC50 [1] [µM]	also measured
CN1NC(c2ccccc2)C2=C1c1ccccc1C2=O (stereo not shown) [Example 5, 1-methyl-3-phenylindeno[1,2-c]pyrazol-4(2H)-one]	187 to 188		
COc1cc(-c2n[nH]c3c2C(=O)c2ccccc2-3)cc(OC)c1OC [Example 2, 3-(3,4,5-Trimethoxyphenyl)indeno[1,2-c]pyrazol-4(1H)-one]	268 to 272		
O=C1c2ccccc2-c2[nH]nc(-c3ccccc3)c21 [3-phenylindeno[1,2-c]pyrazol-4(1H)-one]		0.15	IC50 [2]: 3 µM; IC50 [3]: < 0.1 µM
COc1ccc(-c2n[nH]c3c2C(O)c2ccccc2-3)cc1OC (stereo not shown) [Example 6, 3-(3,4-dimethoxyphenyl)-1,4-dihydroindeno[1,2-c]pyrazol-4-ol]	197 to 199		
O=C1c2ccccc2-c2[nH]nc(-c3ccc(Cl)cc3)c21 [Example 3, 3-(4-chlorophenyl)indeno[1,2-c]pyrazol-4(1H)-one]	> 330		
C1=NC(n2nc(-c3ccccc3)cc2-c2ccccc2)NC1 (stereo not shown)		> 100	
OC1c2ccccc2-c2[nH]nc(-c3ccccc3)c21 (stereo not shown) [Example 7, 3-phenyl-1,4-dihydroindeno[1,2-c]pyrazol-4-ol]	269 to 272		
Cc1c2c(nn1-c1ccccc1)-c1ccccc1C2=O		> 100	
